Converted amounts (≈) assume the structure as drawn.

The record followed here is ChEMBL document CHEMBL1155645, “Microbial transformations of the antimelanoma agent betulinic acid” (2000).

Test [1] can be described thus: Cytotoxicity against human Mel1 cells. In kind it is functional. The settings on record: read-out: ED50 (the source's name).
A short description of test [2]: Cytotoxicity against human Mel2 cells. In kind it is functional. The conditions noted are these: read-out: ED50 (the source's name).

Turning to `C=C(C)[C@@H]1CC[C@]2(C(=O)O)CC[C@]3(C)[C@H](CC[C@@H]4[C@@]5(C)CC[C@H](O)C(C)(C)[C@@H]5CC[C@]43C)[C@@H]12` [BETULINIC ACID], the EC50 is 3.3 mg/L (≈ 7.23 µM) in test [1] and 1 mg/L (≈ 2.19 µM) in test [2].

As to `C=C(C)[C@@H]1CC[C@]2(C(=O)O)CC[C@]3(C)[C@H](CC[C@@H]4[C@@]5(C)[C@H](O)C[C@H](O)C(C)(C)[C@@H]5C[C@H](O)[C@]43C)[C@@H]12`, the EC50 in test [1] and in test [2] was over 20 mg/L each time.

As to `C=C(C)[C@@H]1CC[C@]2(C(=O)O)CC[C@]3(C)[C@H](CC[C@@H]4[C@@]5(C)CCC(=O)C(C)(C)[C@@H]5CC[C@]43C)[C@@H]12` [BETUNOLIC ACID], the EC50 in test [1] was found to be 16 mg/L (≈ 35.2 µM); in test [2], 0.1 mg/L (≈ 0.22 µM).

With `C=C(C)[C@@H]1CC[C@]2(C(=O)O)CC[C@]3(C)[C@H](CC[C@@H]4[C@@]5(C)CC[C@H](O)C(C)(C)[C@@H]5C[C@H](O)[C@]43C)[C@@H]12`, the EC50 was 17.1 mg/L (≈ 36.2 µM) in test [1] and 7.2 mg/L (≈ 15.2 µM) in test [2].

`C=C(C)[C@@H]1CC[C@]2(C(=O)O)CC[C@]3(C)[C@H](CC[C@@H]4[C@@]5(C)CC[C@H](O)C(C)(C)[C@@H]5[C@@H](O)[C@H](O)[C@]43C)[C@@H]12`: the EC50 in test [1] is 10.9 mg/L (≈ 22.3 µM); in test [2], 16.8 mg/L (≈ 34.4 µM).
